Reference: patent US12472189B2, “Treatment and prevention of capillary malformation-arteriovenous malformation” (The Regents of University of Michigan, priority 2020, dated 2025)
“Also recorded” adds a separate entry of the source.

How the values were obtained:
[1] = test system: induced RASA1-deficient mice (Rasa1 fl/fl Ub ert2cre embryos); experiment: Developmental angiogenesis in embryos with TM-induced disruption of Rasa1, drug co-administered; conditions: for EC apoptosis (activated caspase 3) / EC export of collagen IV / deposition of collagen IV in vascular BM / blood vascular hemorrhage (and edema): Rasa1 fl/fl Ub ert2cre embryos, TM at E13.5 with drug i.p. to pregnant mice, assessed at E18.5; for Embryonic vascular phenotypes / Percentage embryos with phenotype (affected/total): TM day E13.5 plus drug; for Embryonic vascular phenotypes / Percentage embryos with phenotype (affected/total) / vascular development / vascular phenotypes, drug administered alone: harvest E18.5; for vascular development / vascular phenotypes, drug administered alone: Rasa1 fl/fl and Rasa1 fl/fl Ub ert2cre embryos, drug from E13.5 in the absence of TM
B16 melanoma = experiment: Tumor angiogenesis, B16 melanoma model in adult induced RASA1-deficient mice; type: in vivo, mouse; conditions: 13 days
Description: TM was administered to mice at 2 months of age (female mice for ID8 experiments and mice of either sex for B16 experiments). After 1 week, mice were injected s.c. in the flank with 1×10^6 ID8 cells or 0.75×10^6 B16F10 cells (provided by Weiping Zou, Michigan Medicine, Ann Arbor Michigan) suspended in 100 μl matrigel (Corning). In B16 experiments, 4PBA was administered to some mice at the same time as tumor and for each day thereafter (0.4 mg/g body weight per injection). ID8 and B16 tumors were harvested 6 weeks or 13 days later respectively and tumor weight and volume was determined as described (Kozak et al. Proc Natl Acad Sci USA. 2010; 107(46):19997-20002; incorporated by reference in its entirety). Tumors were fixed in 4% paraformaldehyde overnight and 5 μm sections were stained with Hoechst and antibodies against CD31, activated caspase 3 and collagen IV as above. Sections were viewed on a BX60 upright fluorescence microscope or a Leica SP5 X confocal microscope. BV density was assessed within a random 800 μm×800 μm region.

[2] = test system: mouse models that express these mutants; conditions: mouse models expressing point mutant collagen IV variants; cited from earlier work
HUVEC = experiment: RASA1 siRNA knockdown in HUVEC, intracellular collagen IV accumulation (immunofluorescence); type: cell-based, human; conditions: RASA1 siRNA-treated HUVEC, 2 mM 4PBA, 24 hours
Description: HUVEC from pooled donors (Lonza, CC-2519) were cultured in EBM™-2 Basal Medium (Lonza, CC-3156) supplemented with EGMm-2 SingleQuots™ Supplement Pack (Lonza, CC-4176). Cells were transfected with 50 nM RASA1 siRNA (5′-[…]-3′ (SEQ ID NO: 1), Invitrogen) using Lipofectamine RNAi MAX (Invitrogen) reagent according to the manufacturer's protocol. Stealth RNAi™ siRNA Negative Control Hi GC (Invitrogen) was used as control. Following transfection, HUVEC were recultured in the presence or absence of 2 mM 4PBA for 24 hours.
HUVECs were fixed with 4% paraformaldehyde in PBS for 30 minutes at room temperature washed in PBS, permeabilized with 0.2% Triton X-100, and blocked with 10% donkey serum for 1 hour. Cells were incubated with antibodies against collagen IV (1340-01, SouthemBiotech) and calnexin (PA5-34754, Thermo Fisher) overnight, followed by Alexa Fluor®488 or 594 conjugated secondary antibodies (Jackson ImmunoResearch) for 4 hours. Cells were stained with Hoechst to identify nuclei before mounting and viewing on a Leica SP5 X confocal microscope.

human and mouse EC = human and mouse EC in vitro; cited from earlier work
[3] = Rasa1 fl/fl littermates, Ert2Cre driver None
[4] = TM-treated Rasa1 fl/fl Ub ert2cre recipients, 4PBA daily from tumor injection

In the case of O=C(O)c1ccnc(C(=O)O)c1 [2,4PDCA, 2,4 pyridinedicarboxylic acid], the “EC apoptosis (activated caspase 3)” value [1] is reported as “absence of BEC apoptosis”, the “EC export of collagen IV / deposition of collagen IV in vascular BM” value [1] is reported as “normal deposition of collagen IV in vascular BM” and the “blood vascular hemorrhage (and edema)” value [1] is reported as “absence of hemorrhage and edema”. For the same molecule, the Embryonic vascular phenotypes [1, 3] was “None”, the “Percentage embryos with phenotype (affected/total)” value [1, 3] was 0 (0/6) Percentage and the Embryonic vascular phenotypes ([1]; Rasa1 fl/fl, Ert2Cre driver Ub) was “None”. The “Percentage embryos with phenotype (affected/total)” value ([1]; Rasa1 fl/fl, Ert2Cre driver Ub) was 0 (0/3) Percentage.
With C=CCN(/C=C1/C(=O)O[C@H](COC)[C@@]2(C)C1=C(O)C(=O)C1=C2[C@H](OC(C)=O)C[C@]2(C)C(=O)CC[C@@H]12)CC=C [PX-866] the “EC apoptosis (activated caspase 3)” value [1] was “unable to rescue”, the “EC export of collagen IV / deposition of collagen IV in vascular BM” value [1] was “unable to rescue” and the “blood vascular hemorrhage (and edema)” value [1] was “extensive cutaneous hemorrhage was evident”.
For CCOC(=O)c1ccc(O)c(O)c1 [EDHB], the “EC apoptosis (activated caspase 3)” value [1] was “completely rescued; also recorded: absence of BEC apoptosis”, the “EC export of collagen IV / deposition of collagen IV in vascular BM” value [1] was “completely rescued; also recorded: normal deposition of collagen IV in vascular BM” and the “blood vascular hemorrhage (and edema)” value [1] was “completely rescued; also recorded: absence of hemorrhage and edema”. For the same molecule, the Embryonic vascular phenotypes ([1]; Rasa1 fl/fl, Ert2Cre driver Ub) was “None” and the “Percentage embryos with phenotype (affected/total)” value ([1]; Rasa1 fl/fl, Ert2Cre driver Ub) was 0 (0/5) Percentage.
With O=C(O)CCCc1ccccc1 [4PBA, 4-phenylbutyric acid] the “B16 growth, 4PBA administered alone” value (B16 melanoma; Rasa1 fl/fl and Rasa1 fl/fl Ub ert2cre mice not previously injected with TM, 4PBA daily) was “no influence”, the “export of collagen IV from BEC and BV angiogenesis in B16 tumors” value (B16 melanoma; [4]) was “normal” and the “growth of B16 cells (tumor weight and volume)” value (B16 melanoma; [4]) was “restored”. For the same molecule, the B16 growth (B16 melanoma; TM-treated Rasa1 fl/fl control mice, 4PBA daily) was “no influence”, the intracerebral hemorrhage [2] was “reversed” and the “EC apoptosis (activated caspase 3)” value [1] was “completely rescued; also recorded: absence of BEC apoptosis”. For the same molecule, the “EC export of collagen IV / deposition of collagen IV in vascular BM” value [1] was “completely rescued; also recorded: normal deposition of collagen IV in vascular BM”, the “blood vascular hemorrhage (and edema)” value [1] was “completely rescued; also recorded: absence of hemorrhage and edema” and the “EC apoptosis (activated caspase 3)” value ([1]; listed as 4-phenylbutyric acid) was “rescued”. The “EC export of collagen IV / deposition of collagen IV in vascular BM” value ([1]; listed as 4-phenylbutyric acid) was “rescued”, the “vascular development / vascular phenotypes, drug administered alone” value [1] was “no influence; also recorded: absence of vascular phenotypes” and the Embryonic vascular phenotypes [1, 3] was “None”. For the same molecule, the “Percentage embryos with phenotype (affected/total)” value [1, 3] was 0 (0/5) Percentage, the Embryonic vascular phenotypes ([1]; Rasa1 fl/fl, Ert2Cre driver Ub) was “None” and the “Percentage embryos with phenotype (affected/total)” value ([1]; Rasa1 fl/fl, Ert2Cre driver Ub) was 0 (0/7) Percentage. For the same molecule, the “intracellular accumulation of collagen IV after RASA1 knockdown” value (HUVEC) was “rescue” and the “blocked export of misfolded point mutant collagen IV variants” value (human and mouse EC) was “rescued”.
With Cn1cnc2c(F)c(Nc3ccc(Br)cc3Cl)c(C(=O)NOCCO)cc21 [AZD6244] the “EC export of collagen IV / deposition of collagen IV in vascular BM” value [1] was “rescued; also recorded: normal deposition of collagen IV in vascular BM”, the “blood vascular hemorrhage (and edema)” value [1] was “prevented; also recorded: absence of hemorrhage and edema” and the “vascular development / vascular phenotypes, drug administered alone” value [1] was “did not induce any vascular abnormalities; also recorded: absence of vascular phenotypes”. For the same molecule, the Embryonic vascular phenotypes [1, 3] was “None”, the “Percentage embryos with phenotype (affected/total)” value [1, 3] was 0 (0/8) Percentage and the Embryonic vascular phenotypes ([1]; Rasa1 fl/fl, Ert2Cre driver Ub) was “None”. For the same molecule, the “Percentage embryos with phenotype (affected/total)” value ([1]; Rasa1 fl/fl, Ert2Cre driver Ub) was 0 (0/7) Percentage.
